From ChEMBL document CHEMBL1201862, “PubChem BioAssay data set” (2004)
Calls of active or inactive are those of the source.

Tests used:
[1] = cytotoxicity in HEK-293T cells, dose response, cytotoxicity control for BCR NF-kB inhibitor project, luminescence, B-cell screen hits (AID 489021); format: functional, cell-based;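 note: HEK-293T cells carrying an NF-kB luciferase reporter; cells exposed to compound for about 14 hours before viability readout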
[2] = inhibitors of Vif binding to APOBEC3G peptide, primary screen, biochemical, TR-FRET, GST-Vif 1-94, biotin-A3G peptide, dose response retest (AID 1117319); format: functional;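 note: TR-FRET signal of purified GST-Vif binding a biotinylated A3G peptide; inhibitors lower the FRET signal by blocking Vif and A3G binding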
[3] = molecular target: T1, Corticotropin-releasing factor receptor 2/Corticotropin-releasing factor-binding protein (Homo sapiens, UniProt P24387+Q13324); experiment: Dose Response confirmation of uHTS hits for small molecule antagonists of the CRF-binding protein and CRF-R2 receptor complex.; format: functional; conditions: read-out: IC50_Mean
T1 sequence (Q13324 whole entry): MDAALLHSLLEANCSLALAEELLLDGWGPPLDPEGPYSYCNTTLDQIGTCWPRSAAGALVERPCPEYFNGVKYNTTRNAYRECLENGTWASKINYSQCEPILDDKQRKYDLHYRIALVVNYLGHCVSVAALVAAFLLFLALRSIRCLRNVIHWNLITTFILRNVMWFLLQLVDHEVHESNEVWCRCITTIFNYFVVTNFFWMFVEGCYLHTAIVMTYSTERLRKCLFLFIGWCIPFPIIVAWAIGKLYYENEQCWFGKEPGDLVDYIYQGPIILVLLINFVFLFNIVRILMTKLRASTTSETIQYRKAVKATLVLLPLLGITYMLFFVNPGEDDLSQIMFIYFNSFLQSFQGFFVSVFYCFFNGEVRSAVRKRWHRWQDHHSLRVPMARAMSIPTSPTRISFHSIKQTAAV
T1 sequence (P24387 whole entry): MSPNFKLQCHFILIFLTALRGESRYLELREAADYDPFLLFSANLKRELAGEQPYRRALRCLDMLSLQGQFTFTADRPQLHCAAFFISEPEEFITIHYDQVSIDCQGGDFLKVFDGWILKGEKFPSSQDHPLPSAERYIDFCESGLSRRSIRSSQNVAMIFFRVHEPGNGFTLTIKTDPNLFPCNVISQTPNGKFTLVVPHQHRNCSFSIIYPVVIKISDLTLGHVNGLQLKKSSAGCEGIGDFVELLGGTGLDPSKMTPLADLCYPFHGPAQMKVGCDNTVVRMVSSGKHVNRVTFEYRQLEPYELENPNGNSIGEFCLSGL

[4] = molecular target: T1, Corticotropin-releasing factor receptor 2/Corticotropin-releasing factor-binding protein; experiment: activators of CRF receptor 2 with binding protein – uHTS hits, confirmation (AID 602473); format: functional; conditions: read-out: EC50_Mean
[5] = molecular target: Trypsin (Sus scrofa, UniProt P00761); experiment: porcine trypsin inhibitors, dose response, selectivity assay for Rce1 protease inhibitor project, biochemical, quenched peptide fluorescence, cherry-pick (AID 488789)
Trypsin, sequence (P00761 whole entry): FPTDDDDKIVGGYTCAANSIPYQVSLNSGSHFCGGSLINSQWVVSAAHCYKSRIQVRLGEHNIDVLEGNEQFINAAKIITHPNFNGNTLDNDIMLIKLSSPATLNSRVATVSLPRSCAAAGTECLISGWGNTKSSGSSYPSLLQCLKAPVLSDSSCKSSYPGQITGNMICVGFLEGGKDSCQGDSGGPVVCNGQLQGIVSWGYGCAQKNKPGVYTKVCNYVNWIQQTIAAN

[6] = molecular target: T2, CAAX prenyl protease 2 (Saccharomyces cerevisiae S288c, UniProt Q03530); format: biochemical
T2 sequence (Q03530 whole entry): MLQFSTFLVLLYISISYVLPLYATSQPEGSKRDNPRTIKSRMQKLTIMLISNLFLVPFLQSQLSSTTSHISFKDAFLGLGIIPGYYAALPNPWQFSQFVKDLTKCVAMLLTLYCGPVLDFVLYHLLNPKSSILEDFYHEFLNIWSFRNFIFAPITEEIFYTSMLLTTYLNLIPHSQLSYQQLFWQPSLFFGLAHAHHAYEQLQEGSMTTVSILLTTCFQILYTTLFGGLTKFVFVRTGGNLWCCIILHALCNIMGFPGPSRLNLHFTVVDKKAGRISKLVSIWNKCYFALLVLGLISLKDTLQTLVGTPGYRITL

[7] = tested on: INS1; experiment: beta cell apoptosis inhibitors, cytokine rescue, dose response, luminescence, retest (AID 449756); format: functional, cell-based; conditions: Rattus norvegicus;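 note: cell death triggered by IL-1 beta plus TNF-alpha plus IFN-gamma mixture; protective hits raise ATP signal compared with cytokine alone wells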
[8] = NIH-3T3 fibroblast cytotoxicity, dose response, cytotoxicity control, cell-based, fluorescence, Alamar Blue, secondary assay (AID 2327); format: functional;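 note: NIH-3T3 mouse fibroblasts cultured with fluconazole at 8 µg/mL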
[9] = molecular target: ATP-dependent molecular chaperone HSP82 (Candida albicans (strain WO-1) (Yeast), UniProt C4YTQ8); experiment: loss of DOC-induced GRE-beta-galactosidase reporter signal, dose response, Hsp90 inhibitor project, S. cerevisiae, luminescence (AID 2400); format: functional, cell-based;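 note: beta-galactosidase luminescence from glucocorticoid response element reporter as proxy for Hsp90 function; inhibitor potency where signal loss means Hsp90 inhibition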
ATP-dependent molecular chaperone HSP82, sequence (C4YTQ8 whole entry): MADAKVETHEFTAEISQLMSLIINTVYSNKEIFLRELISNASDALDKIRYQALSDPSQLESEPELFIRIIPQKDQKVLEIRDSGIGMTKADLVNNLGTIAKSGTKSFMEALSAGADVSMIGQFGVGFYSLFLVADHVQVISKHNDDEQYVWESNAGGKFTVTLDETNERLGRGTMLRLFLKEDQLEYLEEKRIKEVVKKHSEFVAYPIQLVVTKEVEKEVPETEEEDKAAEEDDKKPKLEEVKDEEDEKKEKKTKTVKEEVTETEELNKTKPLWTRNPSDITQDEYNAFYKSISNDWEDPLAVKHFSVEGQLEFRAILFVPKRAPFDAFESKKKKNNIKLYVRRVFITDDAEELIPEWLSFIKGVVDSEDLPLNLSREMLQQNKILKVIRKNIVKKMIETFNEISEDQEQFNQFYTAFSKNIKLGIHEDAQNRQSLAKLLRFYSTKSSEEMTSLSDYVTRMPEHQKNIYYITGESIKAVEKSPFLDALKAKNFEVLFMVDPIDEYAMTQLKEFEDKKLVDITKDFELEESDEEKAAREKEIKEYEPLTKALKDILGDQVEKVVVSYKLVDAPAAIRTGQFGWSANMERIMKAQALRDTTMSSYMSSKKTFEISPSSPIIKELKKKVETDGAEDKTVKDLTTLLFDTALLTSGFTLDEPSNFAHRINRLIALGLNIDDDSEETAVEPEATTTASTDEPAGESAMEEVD

[10] = molecular target: FAD-linked sulfhydryl oxidase ALR (Homo sapiens, UniProt P55789); experiment: inhibitors of human ALR sulfhydryl oxidase, dose response, biochemical, H2O2 detection, luminescence, cherry-pick (AID 493248)
FAD-linked sulfhydryl oxidase ALR, sequence (P55789 whole entry): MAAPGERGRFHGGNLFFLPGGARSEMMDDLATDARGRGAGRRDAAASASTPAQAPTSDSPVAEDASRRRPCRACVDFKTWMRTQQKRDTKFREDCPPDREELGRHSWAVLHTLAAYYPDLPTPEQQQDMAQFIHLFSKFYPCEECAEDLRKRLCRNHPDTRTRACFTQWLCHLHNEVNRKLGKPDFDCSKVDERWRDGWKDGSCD

[11] = C. albicans growth with fluconazole, confirmation, fluorescence, retest (AID 2467); format: functional, cell-based
[12] = molecular target: T3, Serine/threonine-protein phosphatase (Candida dubliniensis (strain CD36 / CBS 7987 / NCPF 3949 / NRRLY-17841) (Yeast), UniProt B9W6M3); experiment: calcineurin pathway inhibitors in yeast reporter, dose response, S. cerevisiae, CDRE-lacZ, luminescence, secondary (AID 2388); format: functional, cell-based;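 note: yeast reporter cells carrying a calcineurin-responsive lacZ construct stimulated with calcium chloride; luminescent beta-galactosidase reporter signal in whole cells rather than isolated phosphatase activity; potency for inhibition where a drop in reporter signal means calcineurin blockade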
T3 sequence (B9W6M3 whole entry): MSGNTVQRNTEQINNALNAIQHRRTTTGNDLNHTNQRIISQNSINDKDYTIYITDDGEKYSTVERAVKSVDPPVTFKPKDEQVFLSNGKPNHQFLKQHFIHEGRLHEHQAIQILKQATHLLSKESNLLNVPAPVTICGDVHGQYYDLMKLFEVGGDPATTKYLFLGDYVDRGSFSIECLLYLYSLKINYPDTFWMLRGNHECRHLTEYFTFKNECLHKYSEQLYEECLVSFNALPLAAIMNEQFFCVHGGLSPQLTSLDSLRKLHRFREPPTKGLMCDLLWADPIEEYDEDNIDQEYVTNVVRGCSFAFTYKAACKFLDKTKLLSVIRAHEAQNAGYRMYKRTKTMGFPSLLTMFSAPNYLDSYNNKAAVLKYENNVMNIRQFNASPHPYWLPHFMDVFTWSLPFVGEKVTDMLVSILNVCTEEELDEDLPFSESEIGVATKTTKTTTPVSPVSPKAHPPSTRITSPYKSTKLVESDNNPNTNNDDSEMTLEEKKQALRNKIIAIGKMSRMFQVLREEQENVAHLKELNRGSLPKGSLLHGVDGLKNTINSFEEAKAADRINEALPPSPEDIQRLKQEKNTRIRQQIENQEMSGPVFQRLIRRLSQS

[13] = tested on: Staphylococcus aureus; experiment: Inhibitors of Bacterial Quorum Sensing Structure Activity Relationship (SAR) Analysis: Dose Response Assay. [Related pubchem assays: 700, 527 ]; format: functional, organism-based
[14] = tested on: HeLa; experiment: HeLa cell cytotoxicity, dose response, cytotoxicity control, 24 h, cherry-picked samples (AID 504726); format: functional, cell-based; conditions: Homo sapiens;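 note: potency for cytotoxicity as loss of luminescence signal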
[15] = molecular target: T4, ORF 73 (Human herpesvirus 8, UniProt O40947); experiment: inhibitors of C-LANA binding to LBS DNA, dose response, biochemical, fluorescence polarization, cherry-picked samples (AID 504725); parameters: species or system Human gammaherpesvirus 8;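 note: fluorescence polarization of a labeled DNA duplex reporting LANA DNA binding; potency is for inhibitors that block LANA binding to the DNA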
T4 sequence (O40947 whole entry): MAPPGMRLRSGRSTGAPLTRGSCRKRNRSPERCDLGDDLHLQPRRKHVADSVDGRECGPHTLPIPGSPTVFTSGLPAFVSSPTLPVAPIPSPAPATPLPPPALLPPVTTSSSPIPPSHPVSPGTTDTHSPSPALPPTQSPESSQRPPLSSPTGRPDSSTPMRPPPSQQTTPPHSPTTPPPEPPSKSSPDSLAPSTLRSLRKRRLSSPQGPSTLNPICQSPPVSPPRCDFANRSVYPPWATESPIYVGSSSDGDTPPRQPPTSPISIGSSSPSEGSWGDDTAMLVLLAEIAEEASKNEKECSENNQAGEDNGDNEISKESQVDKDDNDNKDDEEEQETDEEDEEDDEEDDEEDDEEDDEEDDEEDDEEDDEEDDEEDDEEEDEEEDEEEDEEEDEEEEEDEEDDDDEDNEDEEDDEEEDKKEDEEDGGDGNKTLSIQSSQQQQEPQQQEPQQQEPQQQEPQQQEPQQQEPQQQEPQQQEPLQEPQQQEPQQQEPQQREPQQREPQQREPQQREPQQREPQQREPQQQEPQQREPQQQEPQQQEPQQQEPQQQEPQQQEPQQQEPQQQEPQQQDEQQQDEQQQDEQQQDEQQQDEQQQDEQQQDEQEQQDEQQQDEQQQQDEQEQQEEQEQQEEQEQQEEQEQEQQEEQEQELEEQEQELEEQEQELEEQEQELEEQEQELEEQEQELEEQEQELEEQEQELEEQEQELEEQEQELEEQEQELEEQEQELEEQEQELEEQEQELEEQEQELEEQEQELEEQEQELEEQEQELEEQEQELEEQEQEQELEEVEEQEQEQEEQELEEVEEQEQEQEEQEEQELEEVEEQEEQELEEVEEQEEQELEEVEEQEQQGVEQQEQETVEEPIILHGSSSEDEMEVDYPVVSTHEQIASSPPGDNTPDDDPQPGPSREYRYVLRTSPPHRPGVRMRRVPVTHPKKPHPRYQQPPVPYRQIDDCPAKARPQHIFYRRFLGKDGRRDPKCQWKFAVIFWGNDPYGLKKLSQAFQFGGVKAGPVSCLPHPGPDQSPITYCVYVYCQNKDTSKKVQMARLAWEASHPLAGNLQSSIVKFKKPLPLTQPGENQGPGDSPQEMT

## COc1ccc(OC)c(NC(=O)c2[nH]c(C)c(C(C)=O)c2C)c1
[1]
  IC50: > 80 µM (inactive)
[2]
  IC50: > 100 µM (active)
[3]
  IC50: > 47.1 µM (inactive)
[4]
  EC50: > 53 µM (inactive)

## COc1ccc(-c2c[n+]3c4n2CCCCC4=C(c2ccc(Br)cc2)C3)cc1
[5]
  AC50: 3.58 µM (active)
[6]
  AC50: 1.87 µM (active)
[7]
  AC50: 2.88 µM (active)

## O=C1CSC(NC(=O)N2c3ccccc3Sc3ccccc32)=N1
[8]
  EC50: > 150 µM (inactive)
[9]
  EC50: > 150 µM (inactive)
[10]
  AC50: 0.335 µM (active)
[11]
  EC50: 2.32 µM (active)
[12]
  EC50: > 180 µM (inactive)
[13]
  IC50: 0.278 µM (active)

## COC(=O)C(NC(=O)C(C)NC(=O)OCc1ccccc1)C(C)C (stereo not given)
[14]
  AC50: 68.2 µM (active)
[15]
  AC50: 70.8 µM (active)
